Drawing on PubChem BioAssay (NCI), this text covers TGI and GI50 for 10 compounds.

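In this assay, cells in 96-well plates receive the compound at five concentrations for 48 hours. Endpoints are linearly interpolated between the surrounding concentrations. Here, GI50 denotes the concentration required for 50% inhibition of growth. The concentration for full growth arrest is given as TGI.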

Some test systems named below: A549 NSCLC; HT29 colon; K-562 leukemia; MDA-MB-435; NCI-H522 lung; SN12C renal; SNB-19 CNS; U251 CNS; RPMI-8226 leukemia; SW-620 colon.
What all share (assay): inhibition of tumour cell growth, NCI panel, 48 h

For `CC(C)=CCc1c(OC(=O)c2c(C)cc(O)cc2O)cc(CO)c(CO)c1O`, the TGI came out at 62.2 µM with A549 NSCLC; 42.6 µM with HT29 colon; 32.9 µM with K-562 leukemia; 45.9 µM in the test with MDA-MB-435; 39.2 µM with NCI-H522 lung; 34.9 µM in the test with SN12C renal. Also, the TGI is 21.2 µM in the test with SNB-19 CNS and 40 µM in the test on U251 CNS.
In the case of `Nc1ccc(C2=NN(c3ccccc3)C(c3ccc(Cl)cc3)C2)cc1` (centres undefined), the GI50 is 2.45 µM in the test on A549 NSCLC; 1.96 µM in the test on HT29 colon; 2.51 µM with MDA-MB-435; 1.51 µM in the test on NCI-H522 lung; 1.86 µM in the test on RPMI-8226 leukemia; 1.85 µM in the test on SN12C renal. The GI50 in the test on SNB-19 CNS is 2.9 µM; with SW-620 colon, 1.67 µM; with U251 CNS it was 1.47 µM. Moreover, the TGI in the test on A549 NSCLC is 7.98 µM; in the test with HT29 colon it was 4.49 µM; in the test on MDA-MB-435, 6.58 µM; with NCI-H522 lung, 3.27 µM; in the test with RPMI-8226 leukemia it was 4.88 µM; in the test with SN12C renal, 4.53 µM. Further, the values for the TGI in the test with SNB-19 CNS, in the test with SW-620 colon and in the test with U251 CNS were 14.1 µM, 3.35 µM and 2.79 µM, respectively.
`Cc1ccc(-c2csc(/N=C3\C(=O)Nc4ccccc43)n2)cc1`: the GI50 in the test with A549 NSCLC was 2.98 µM; with HT29 colon, 1.6 µM; in the test with K-562 leukemia it was 1.73 µM; in the test with MDA-MB-435, 1.38 µM; in the test on NCI-H522 lung, 1.51 µM; with RPMI-8226 leukemia, 1.05 µM. Moreover, the GI50 in the test on SNB-19 CNS was 1.52 µM; with SW-620 colon, 1.62 µM; in the test with U251 CNS, 1.46 µM. For the same compound, the TGI in the test with A549 NSCLC was 11.3 µM; in the test on HT29 colon, 4.83 µM; in the test on K-562 leukemia, above 100 µM; in the test with MDA-MB-435, 2.87 µM; in the test on NCI-H522 lung, 3.49 µM; with RPMI-8226 leukemia it was 4.29 µM. In addition, the TGI amounted to 3.19 µM in the test with SNB-19 CNS, 3.66 µM with SW-620 colon and 3.05 µM with U251 CNS.
Regarding `C=C1C(=O)O[C@@H]2C[C@@H](C)[C@@H]3C=CC(=O)[C@@]3(C)[C@@H](OC(=O)CC(=O)O[C@H]3[C@@H]4C(=C)C(=O)O[C@@H]4C[C@@H](C)[C@@H]4C=CC(=O)[C@]43C)[C@H]12`, the TGI with A549 NSCLC is 2.46 µM; in the test on HT29 colon, 0.223 µM; with K-562 leukemia, below 0.0322 µM; in the test on MDA-MB-435, 0.144 µM; in the test with RPMI-8226 leukemia, 0.0866 µM; in the test on SN12C renal, 0.0763 µM. Moreover, the TGI with SNB-19 CNS stood at 1.73 µM; with SW-620 colon, 0.0326 µM; in the test on U251 CNS, 0.149 µM.
Take `COc1ccc2c(c1)C(=O)c1c-2n(CCCN=[N+]=[N-])c(=O)c2cc(OC)c(OC)cc12`: the GI50 is 33 µM in the test on A549 NSCLC; above 100 µM in the test on HT29 colon; above 100 µM in the test on MDA-MB-435; 43.8 µM in the test on NCI-H522 lung; 0.868 µM in the test with RPMI-8226 leukemia; 64.7 µM in the test on SN12C renal. Also, the GI50 is 47 µM with SNB-19 CNS, above 100 µM in the test with SW-620 colon and 24.2 µM in the test on U251 CNS. For the same compound, the TGI in the test on A549 NSCLC was above 100 µM; in the test on HT29 colon, above 100 µM; in the test on MDA-MB-435, above 100 µM; in the test on NCI-H522 lung, above 100 µM; with RPMI-8226 leukemia, 5.58 µM; in the test with SN12C renal it was above 100 µM. The TGI with SNB-19 CNS, in the test with SW-620 colon and with U251 CNS was above 100 µM in each case.
`Cc1cc2c(ccc3c(C)cc(=O)oc32)o1`: the TGI in the test with A549 NSCLC, in the test with HT29 colon, in the test with K-562 leukemia, in the test with NCI-H522 lung, in the test with RPMI-8226 leukemia and with SN12C renal was above 100 µM each time. The TGI in the test with SNB-19 CNS, with SW-620 colon and in the test with U251 CNS was above 100 µM throughout.
`CCC[CH2][Sn]1([CH2]CCC)[O]CC(Cc2ccccc2)[O]1` (centres undefined): the GI50 with A549 NSCLC was 15.3 µM; in the test on HT29 colon it was 4.43 µM; with K-562 leukemia it was 1.67 µM; with NCI-H522 lung it was 0.259 µM; with RPMI-8226 leukemia, 0.312 µM; in the test on SN12C renal, 3.5 µM. The values for the GI50 in the test with SNB-19 CNS, in the test with SW-620 colon and with U251 CNS were 3.45 µM, 1.63 µM and 1.85 µM, respectively. The TGI in the test on A549 NSCLC was found to be 28.9 µM; with HT29 colon it was 14.5 µM; in the test on K-562 leukemia it was 6.64 µM; in the test with NCI-H522 lung, 0.93 µM; in the test on RPMI-8226 leukemia, 3.62 µM; with SN12C renal, 11.7 µM. Besides, the TGI in the test with SNB-19 CNS was 11.7 µM; in the test on SW-620 colon, 3.48 µM; with U251 CNS, 3.91 µM.
Take `CN(C)CC(C)(C)C(=O)/C=C/c1ccc(/C=C/C(=O)C(C)(C)CN(C)C)cc1`: the TGI turned out to be 7.4 µM in the test with A549 NSCLC; 1.77 µM with HT29 colon; 0.594 µM with K-562 leukemia; 0.292 µM in the test with NCI-H522 lung; 5.47 µM in the test on RPMI-8226 leukemia; 3.55 µM in the test on SN12C renal. For the same compound, the results for the TGI with SNB-19 CNS, with SW-620 colon and with U251 CNS were 4.75 µM, 2.17 µM and 3.04 µM, respectively.
Consider `CCC[CH2][Sn]([CH2]CCC)([CH2]CCC)[O]c1ccc(Cl)cc1Cl`, for which the GI50 in the test with A549 NSCLC is 0.159 µM; in the test on HT29 colon it was 0.118 µM; with K-562 leukemia, 0.12 µM; in the test on MDA-MB-435, 0.139 µM; in the test with NCI-H522 lung it was 0.149 µM; in the test on SN12C renal, 0.142 µM. In addition, the GI50 in the test on SNB-19 CNS was 0.175 µM; in the test with SW-620 colon, 0.131 µM; in the test on U251 CNS, 0.146 µM. In addition, the TGI in the test on A549 NSCLC worked out at 0.345 µM; with HT29 colon, 0.293 µM; with K-562 leukemia, 0.408 µM; in the test with MDA-MB-435, 0.29 µM; in the test on NCI-H522 lung it was 0.297 µM; in the test with SN12C renal, 0.303 µM. In addition, the TGI with SNB-19 CNS came out at 0.344 µM; with SW-620 colon, 0.279 µM; with U251 CNS, 0.297 µM.
On to `C=C(COC(C)=O)CC(OC(C)=O)c1ccccc1` (centres undefined), for which the TGI in the test on A549 NSCLC, in the test on HT29 colon, in the test on K-562 leukemia, in the test with NCI-H522 lung, with RPMI-8226 leukemia and with SN12C renal was above 100 µM in each case. Moreover, the TGI in the test with SNB-19 CNS, in the test on SW-620 colon and in the test on U251 CNS was above 100 µM each time.
